Experimental data: PubChem BioAssay (NCI)
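Step 1: Grow cells in 96-well plates. Step 2: Expose to compound for 48 hours at 5 concentrations. Step 3: Interpolate endpoints linearly; if unreached, use highest concentration. At the GI50, growth is halved. TGI is the concentration that stops growth completely.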

Experiments:
Assay in all cases: NCI-60 cell line screen, 48 h
MOLT-4 leukemia = test system: MOLT-4 leukemia
NCI-H23 lung = test system: NCI-H23 lung
T-47D breast = test system: T-47D breast
SN12C renal = test system: SN12C renal
HOP-62 NSCLC = test system: HOP-62 NSCLC
HT29 colon = test system: HT29 colon
A549 NSCLC = test system: A549 NSCLC
PC-3 prostate = test system: PC-3 prostate
HCT-116 colon = test system: HCT-116 colon
SF-295 CNS = test system: SF-295 CNS
SW-620 colon = test system: SW-620 colon
CCRF-CEM leukemia = test system: CCRF-CEM leukemia
NCI-H226 lung = test system: NCI-H226 lung
BT-549 breast = test system: BT-549 breast
HS 578T breast = test system: HS 578T breast

SMILES	TGI (MOLT-4 leukemia)	TGI (NCI-H23 lung)	TGI (T-47D breast)	TGI (SN12C renal)	TGI (HOP-62 NSCLC)	TGI (HT29 colon)	TGI (A549 NSCLC)	TGI (PC-3 prostate)	TGI (HCT-116 colon)	TGI (SF-295 CNS)	TGI (SW-620 colon)	TGI (CCRF-CEM leukemia)	TGI (NCI-H226 lung)	TGI (BT-549 breast)	TGI (HS 578T breast)	GI50 (NCI-H226 lung)	GI50 (HCT-116 colon)	GI50 (SF-295 CNS)
CC(=O)c1cc2sc3ccccc3c2[nH]1	> 100 µM	> 100 µM	> 100 µM	> 100 µM	> 100 µM	> 100 µM	> 100 µM	> 100 µM	> 100 µM	> 100 µM	> 100 µM							
Cc1ccc(NCCO)cc1	> 100 µM	> 100 µM		> 100 µM	> 100 µM	> 100 µM	> 100 µM		> 100 µM	> 100 µM	> 100 µM	> 100 µM	> 100 µM					
Cc1c(/C=N/NC(=S)Nc2ccc([N+](=O)[O-])cc2)c(=O)n(-c2ccccc2)n1C	> 100 µM	32.6 µM			23.8 µM	25.5 µM		76.8 µM	52.3 µM	22.7 µM	> 100 µM	> 100 µM	29.7 µM	36.5 µM	42.2 µM			
CC(C)C1=CC23CCC4C(C)(C(=O)O)CCCC4(C)C2CC1C1C(=O)N(c2ccc(N4C(=O)C5C6CC7C8(C)CCCC(C)(C(=O)O)C8CCC7(C=C6C(C)C)C5C4=O)cc2)C(=O)C13 (stereo not drawn)	22 µM	11.9 µM	26.8 µM	17.5 µM	19.3 µM	5.22 µM	43.3 µM	14.1 µM	11.8 µM		21.6 µM	19.4 µM	13.7 µM		30.2 µM			
COc1ccc(-c2cc(=O)c3cc4c(cc3[nH]2)OCO4)c(OC)c1	> 100 µM	> 100 µM		> 100 µM	> 100 µM	> 100 µM	> 100 µM		> 100 µM	> 100 µM	> 100 µM	> 100 µM	> 100 µM			93.5 µM	40.7 µM	46.2 µM
O=C(OC1C#CCSCC#C/C=C\1)c1cnc2ccccc2n1 (stereo not drawn)		> 100 µM		> 100 µM	> 100 µM	> 100 µM		> 100 µM	> 100 µM	> 100 µM	> 100 µM	> 100 µM	> 100 µM	> 100 µM	> 100 µM			
CCOC(=O)C1C(c2ccccc2)C2(C#N)C(=N)OC1(C)C2(C#N)C#N (stereo not drawn)	56 µM	37 µM	> 100 µM			29.4 µM	> 100 µM	> 100 µM	35.7 µM	> 100 µM	> 100 µM	99.7 µM	> 100 µM		> 100 µM			
CCOC(=O)c1sc2c(c1OC(=O)c1ccc(Cl)cc1Cl)c(=O)n(-c1ccccc1)c(=S)n2-c1ccccc1	14.5 µM	> 82.6 µM	> 100 µM	22.6 µM	> 100 µM	> 77.5 µM	> 100 µM	> 100 µM	> 78.5 µM	> 100 µM	> 100 µM	> 100 µM	> 33.6 µM		> 100 µM			
CCN1CCC(O)(/C=C/c2cccc(C)c2)C(C(=O)/C=C/c2cccc(C)c2)C1 (stereo not drawn)	> 21.5 µM	4.95 µM	8.38 µM	7.04 µM		3.18 µM	5.97 µM	> 25.4 µM	6.13 µM	4.51 µM	7.38 µM		5.89 µM		4.97 µM			
CNC(=S)N/N=C(\C)c1cc(OC)c(OC)cc1O	> 100 µM		> 100 µM	> 100 µM	> 100 µM	> 100 µM	> 100 µM	> 100 µM	> 100 µM		> 100 µM	> 100 µM		> 100 µM				
CC1(C)OC[C@@H]([C@H](C=O)OCc2ccccc2)O1	> 100 µM	> 100 µM		> 100 µM	> 100 µM	> 100 µM	> 100 µM	> 100 µM	> 100 µM	> 100 µM	> 100 µM	> 100 µM	> 100 µM		> 100 µM			
N#CC(NNC(=O)Cc1ccccc1)c1ccc(O)cc1 (stereo not drawn)	> 100 µM	> 100 µM		> 100 µM	> 100 µM	> 100 µM	> 100 µM		> 100 µM	> 100 µM	> 100 µM	> 100 µM	> 100 µM					
CCC1CN2CCc3cc(OC)c(OC)cc3C2CC1CC1c2cc(OC)c(OC)cc2CCN1C(=O)C(Cc1c[nH]c2ccccc12)NC(=O)OC(C)(C)C (stereo not drawn)	8.07 µM	16.6 µM	4.16 µM	8.7 µM	14.5 µM	4.01 µM	7.93 µM	10.5 µM	5.78 µM	9.31 µM	9.03 µM	15.7 µM	27.6 µM	7.83 µM				
O=C(CSc1nc(-c2ccccc2)c(-c2ccccc2)[nH]1)N/N=C/c1ccc([N+](=O)[O-])cc1	48.5 µM	33.9 µM		31.9 µM	33.7 µM	35.8 µM	57.5 µM		32.7 µM	36.1 µM		61.3 µM	32.8 µM					
CCOC(=O)C(=O)N=Nc1c(O)[nH]c2ccccc12	> 100 µM	> 100 µM	> 100 µM	> 100 µM	> 100 µM		> 100 µM	> 100 µM	> 100 µM	> 100 µM	> 100 µM	> 100 µM	> 100 µM	> 100 µM				
CC(=O)OCc1cc(OC(C)=O)c2cc3c(OC(C)=O)cccc3c(OC(C)=O)c2c1	> 100 µM	56.8 µM	51.3 µM	32.2 µM	39.6 µM	43.9 µM	30.9 µM	38.6 µM	> 100 µM	32.9 µM	44.2 µM		47.3 µM	49.6 µM				
CN1CCN(Cn2nc(-c3ccccc3)n(/N=C/c3ccc(-c4ccc(Cl)cc4Cl)o3)c2=S)CC1	5.15 µM	40.7 µM	45.1 µM		30.5 µM	36.3 µM		22 µM	14.8 µM	29.9 µM	32.9 µM	23.2 µM	53.2 µM		> 100 µM			
